Two compounds from paper PMC2797226 (The Journal of Biological Chemistry, 2009) can be followed below.

The Kd is a measure of binding affinity in units of concentration.

One experiment addresses Kar2p (Saccharomyces cerevisiae, UniProt P16474). In words: proteinase K protection, SDS-PAGE. In kind it is binding. The settings on record: 2 mM ADP; 5 mM MgCl2; pH 7.4; room temperature.
In another experiment the target is T1, Lhs1p (Saccharomyces cerevisiae, UniProt P36016).
T1 sequence (P36016 21-881): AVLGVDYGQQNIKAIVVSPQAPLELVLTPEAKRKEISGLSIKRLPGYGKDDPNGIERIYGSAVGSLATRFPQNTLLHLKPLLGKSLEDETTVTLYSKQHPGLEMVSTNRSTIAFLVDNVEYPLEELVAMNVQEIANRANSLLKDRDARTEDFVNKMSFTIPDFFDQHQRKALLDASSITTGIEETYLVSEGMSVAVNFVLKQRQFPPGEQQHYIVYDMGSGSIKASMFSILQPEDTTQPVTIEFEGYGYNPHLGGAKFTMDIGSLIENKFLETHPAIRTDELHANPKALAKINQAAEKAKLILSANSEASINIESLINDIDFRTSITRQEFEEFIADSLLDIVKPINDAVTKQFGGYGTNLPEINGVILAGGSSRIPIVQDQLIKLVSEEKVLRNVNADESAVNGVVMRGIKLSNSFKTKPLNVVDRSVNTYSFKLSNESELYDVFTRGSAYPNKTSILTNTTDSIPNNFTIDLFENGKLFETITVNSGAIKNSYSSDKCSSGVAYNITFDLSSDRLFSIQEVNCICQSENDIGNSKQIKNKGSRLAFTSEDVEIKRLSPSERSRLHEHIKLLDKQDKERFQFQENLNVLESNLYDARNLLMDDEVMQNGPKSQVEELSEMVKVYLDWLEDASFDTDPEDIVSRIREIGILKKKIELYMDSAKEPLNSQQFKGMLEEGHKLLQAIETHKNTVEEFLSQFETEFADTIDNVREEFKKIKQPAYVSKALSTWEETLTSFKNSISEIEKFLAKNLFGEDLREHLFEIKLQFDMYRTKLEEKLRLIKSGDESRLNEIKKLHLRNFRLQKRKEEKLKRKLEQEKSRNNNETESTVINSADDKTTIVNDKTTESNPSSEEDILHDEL
Kind of experiment: biochemical.

Each structure is given as a SMILES string.

Kar2p, sequence (P16474 43-682): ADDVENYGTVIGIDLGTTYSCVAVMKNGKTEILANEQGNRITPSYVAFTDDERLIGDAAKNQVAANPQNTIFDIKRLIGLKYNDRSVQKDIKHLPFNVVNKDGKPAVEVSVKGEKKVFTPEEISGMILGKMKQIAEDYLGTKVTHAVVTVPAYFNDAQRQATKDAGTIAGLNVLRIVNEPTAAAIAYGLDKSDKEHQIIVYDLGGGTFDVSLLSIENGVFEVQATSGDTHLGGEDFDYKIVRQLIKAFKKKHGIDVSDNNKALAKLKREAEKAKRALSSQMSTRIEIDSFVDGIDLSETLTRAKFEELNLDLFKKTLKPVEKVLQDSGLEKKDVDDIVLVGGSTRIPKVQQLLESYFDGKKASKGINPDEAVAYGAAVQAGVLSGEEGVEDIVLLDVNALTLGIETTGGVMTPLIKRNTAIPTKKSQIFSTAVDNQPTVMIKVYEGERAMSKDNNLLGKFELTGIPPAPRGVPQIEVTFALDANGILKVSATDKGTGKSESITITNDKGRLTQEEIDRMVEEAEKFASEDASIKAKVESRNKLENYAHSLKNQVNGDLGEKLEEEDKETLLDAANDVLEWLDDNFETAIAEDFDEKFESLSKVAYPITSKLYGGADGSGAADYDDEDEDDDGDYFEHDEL

For the compound `Nc1ncnc2c1ncn2[C@@H]1O[C@H](COP(=O)(O)OP(=O)(O)O)[C@@H](O)[C@H]1O` [ADP], the “proteinase K protection, SDS-PAGE” value at Kar2p is “ADP binding protects a ∼44-kDa NBD fragment”.
`Nc1ncnc2c1ncn2[C@@H]1O[C@H](COP(=O)(O)OP(=O)(O)OP(=O)(O)O)[C@@H](O)[C@H]1O` [ATP] came in with a Kd on Lhs1p of 13.6 ± 0.5 µM.
